The source of these data is patent publication US8101766B2, “Crystalline form of a biphenyl compound” (Theravance, Inc., priority 2004, dated 2012).

The Ki is a dissociation constant, usually derived from enzyme kinetics or from competition with a known ligand.

The assay has as its target T1, human M3 muscarinic receptor (Homo sapiens, UniProt P20309).
T1 construct: expressed in transfected cells
Description: Radioligand binding assay for muscarinic receptors (hM3). The settings on record: [3H]-NMS displacement, CHO cell membranes. As to the method:
Cell Culture and Membrane Preparation from Cells Expressing Human M1, M2, M3 and M4 Muscarinic Receptors
CHO cell lines stably expressing cloned human hM1, hM2, hM3 and hM4 muscarinic receptor subtypes, respectively, were grown to near confluency in HAM's F-12 media supplemented with 10% FBS and 250 μg/mL Geneticin. The cells were grown in a 5% CO2, 37° C. incubator and lifted with 2 mM EDTA in dPBS. Cells were collected by 5 minute centrifugation at 650×g, and cell pellets were either stored frozen at −80° C. or membranes were prepared immediately for use. […] The protein concentration of the membrane suspension was determined by the method described in Lowry et al., 1951, Journal of Biochemistry, 193, 265. […]
Radioligand binding assays for cloned human muscarinic receptors were performed in 96-well microtiter plates in a total assay volume of 100 μL. […] Filter plates were rinsed three times with wash buffer (10 mM HEPES) to remove unbound radioactivity. […] The plates were then counted in a PerkinElmer Topcount liquid scintillation counter (PerkinElmer Inc., Wellesley, Mass.). Binding data were analyzed by nonlinear regression analysis with the GraphPad Prism Software package (GraphPad Software, Inc., San Diego, Calif.) using the one-site competition model. […]

T1 sequence (P20309 whole entry): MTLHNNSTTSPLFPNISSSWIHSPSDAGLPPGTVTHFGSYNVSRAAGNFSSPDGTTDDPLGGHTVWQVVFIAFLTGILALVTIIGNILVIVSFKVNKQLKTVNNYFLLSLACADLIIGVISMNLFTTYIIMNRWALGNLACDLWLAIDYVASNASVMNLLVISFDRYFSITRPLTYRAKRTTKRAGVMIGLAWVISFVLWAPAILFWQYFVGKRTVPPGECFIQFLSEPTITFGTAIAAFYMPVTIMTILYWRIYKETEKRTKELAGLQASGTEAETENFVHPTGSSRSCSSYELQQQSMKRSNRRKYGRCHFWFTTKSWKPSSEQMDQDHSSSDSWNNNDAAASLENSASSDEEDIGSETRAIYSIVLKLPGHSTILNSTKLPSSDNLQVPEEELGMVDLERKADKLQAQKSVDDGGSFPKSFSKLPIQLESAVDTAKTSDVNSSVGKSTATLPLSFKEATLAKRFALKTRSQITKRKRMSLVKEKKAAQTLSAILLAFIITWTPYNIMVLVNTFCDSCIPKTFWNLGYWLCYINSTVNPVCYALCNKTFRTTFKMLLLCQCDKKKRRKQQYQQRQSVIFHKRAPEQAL

Compound `COc1cc(NC(=O)CCN2CCC(OC(=O)Nc3ccccc3-c3ccccc3)CC2)c(Cl)cc1CNC[C@H](O)c1ccc(O)c2[nH]c(=O)ccc12` [compound of formula I, biphenyl-2-ylcarbamic acid 1-[2-(2-chloro-4-{[(R)-2-hydroxy-2-(8-hydroxy-2-oxo-1,2-dihydroquinolin-5-yl)ethylamino]methyl}-5-methoxyphenylcarbamoyl)ethyl]piperidin-4-yl ester] showed a Ki of under 10 nM.
